{
  "source": "paper PMC10608021",
  "about": "“Angiotensin-I-Converting Enzyme (ACE)-Inhibitory Peptides from the Collagens of Monkfish (Lophius litulon) Swim Bladders: Isolation, Characterization, Molecular Docking Analysis and Activity Evaluation” (Marine Drugs, 2023)",
  "key": {"[1]": {"system": "HUVECs, endothelin-1 (ET-1) level", "test": "ET-1 production in HUVECs (assay kit)", "format": "cell-based, Human", "settings": "for ET-1 content in NE-treated HUVECs: peptide 300 μM + NE (0.5 μM), NE alone 69.58 ± 3.11 pg/mL; for ET-1 content in HUVECs, result in words: peptide at 100–300 μM", "method": "(§1) HUVECs were cultured in DMEM at 37 °C in a humidified 5% CO2 atmosphere, and the DMEM contained penicillin (100 U/mL), FBS (10%, v/v) and streptomycin ([…]). After 24 h, the cells were used for follow-up experiments.\n(§2) After treatment with ACEi peptides (MHP6, MHP7 and MHP9, respectively) for 24 h, the NO and ET-1 content in the HUVECs was separately determined according to their assay kits as per manufacturers’ protocol."}, "[2]": {"system": "HUVECs, nitric oxide (NO) level", "test": "NO production in HUVECs (assay kit)", "format": "cell-based, Human", "settings": "for NO level in HUVECs / NO production level in HUVECs: control 35.01 ± 1.38 µM; for NO level in HUVECs / NO content in NE-treated HUVECs / NO production level in HUVECs: mean ± SD, n = 3; for NO content in NE-treated HUVECs: peptide 300 μM + NE, NE alone 21.34 ± 1.24 µM; for NO production level in HUVECs: peptide 300 μM, 24 h, without NE; for NO content in HUVECs, result in words: treatment with peptide", "method": "as §1, §2"}, "[3]": {"molecular_target": "T1, ACE (Homo sapiens, UniProt P12821)", "T1 sequence (P12821 30-1306, species assumed)": "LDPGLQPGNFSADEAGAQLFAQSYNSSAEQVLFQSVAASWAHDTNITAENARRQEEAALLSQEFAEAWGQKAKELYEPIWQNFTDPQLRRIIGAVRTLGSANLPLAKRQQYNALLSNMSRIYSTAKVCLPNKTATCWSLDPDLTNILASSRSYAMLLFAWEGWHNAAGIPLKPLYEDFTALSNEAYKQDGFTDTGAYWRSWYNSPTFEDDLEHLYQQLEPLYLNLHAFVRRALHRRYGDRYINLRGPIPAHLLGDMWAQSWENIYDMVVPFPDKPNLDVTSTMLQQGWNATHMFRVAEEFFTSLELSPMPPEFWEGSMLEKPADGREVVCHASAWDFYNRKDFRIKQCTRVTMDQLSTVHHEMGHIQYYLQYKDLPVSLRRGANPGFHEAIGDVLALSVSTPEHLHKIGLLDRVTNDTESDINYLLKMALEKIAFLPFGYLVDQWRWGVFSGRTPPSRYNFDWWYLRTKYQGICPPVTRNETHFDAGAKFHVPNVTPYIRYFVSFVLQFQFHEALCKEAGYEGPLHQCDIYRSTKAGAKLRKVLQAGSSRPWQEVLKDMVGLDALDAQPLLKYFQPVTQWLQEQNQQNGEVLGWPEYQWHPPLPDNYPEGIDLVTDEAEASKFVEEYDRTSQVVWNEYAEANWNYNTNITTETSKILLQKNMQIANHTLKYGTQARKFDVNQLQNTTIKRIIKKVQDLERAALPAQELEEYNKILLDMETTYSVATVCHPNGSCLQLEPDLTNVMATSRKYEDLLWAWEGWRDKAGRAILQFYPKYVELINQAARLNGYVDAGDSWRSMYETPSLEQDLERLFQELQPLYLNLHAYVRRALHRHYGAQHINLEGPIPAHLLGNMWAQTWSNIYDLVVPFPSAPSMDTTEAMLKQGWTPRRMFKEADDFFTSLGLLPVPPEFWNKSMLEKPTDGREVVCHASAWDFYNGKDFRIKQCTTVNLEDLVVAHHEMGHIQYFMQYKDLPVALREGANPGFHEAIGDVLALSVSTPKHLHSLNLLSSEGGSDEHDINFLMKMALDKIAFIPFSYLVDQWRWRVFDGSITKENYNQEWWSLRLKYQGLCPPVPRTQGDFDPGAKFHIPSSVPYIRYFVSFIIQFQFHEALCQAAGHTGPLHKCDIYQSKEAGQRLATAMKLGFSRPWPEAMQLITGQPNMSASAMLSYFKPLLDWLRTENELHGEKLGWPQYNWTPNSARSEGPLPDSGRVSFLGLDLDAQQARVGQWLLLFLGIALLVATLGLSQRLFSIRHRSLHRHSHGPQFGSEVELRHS", "test": "ACEi activity (FAPGG substrate)", "format": "biochemical", "settings": "1.5 mg/mL; FAPGG (3 mM) substrate, ACE 1.25 mU, 37 °C, 0.5 h incubation, HPLC at 228 nm; mean ± SD, n = 3", "method": "The ACEi activity of PSC-MH, fractions and peptides (MHP1-MHP12) was determined by using FAPGG as a substrate. Briefly, the initial volume was made up of a 50 µL volume of FAPGG (3 mM), ACE (1.25 mU) and the sample solution, respectively. These solutions were first preheated at 37 °C for 0.5 h […], and mixed and incubated for an additional 0.5 h. After that, 150 µL of glacial acetic acid was added to the solution to inactivate ACE. After that, the content of hippuric acid (HA) in the reaction mixture produced from the substrate reactions catalyzed by ACE was determined using HPLC at 228 nm. In short, using an isocratic system (pH 3.0) made up of 12.5% (v/v) acetonitrile in deionized water, the amount of free HA was evaluated using an HPLC system (Agilent 1200, Agilent Ltd., Santa Clara, CA, USA) on a Zorbax SB C-18 column (4.6 × 250 mm, 5 µm). The sample (10 µL) was eluted at a flow rate of 1.0 mL/min, and the absorbance at 228 nm was monitored to obtain the measurement. A total of 50 µL of PBS buffer, used as the sample substitute, was added into the control reaction mixture. ACEi activity was calculated as follows: ACEi activity (%) = [(HA control − HA sample)/HA control] × 100%(1)"}, "[4]": {"system": "HUVECs", "test": "Viability of HUVECs (MTT)", "format": "cell-based, Human", "settings": "for Cell viability of HUVECs: 400 µM; for Viability of HUVECs, result in words: 400 μM, 24 h, versus control and other concentration groups, p < 0.05", "method": "as §1\nThe MTT method was employed to detect the viability of HUVECs incubated with MHP6, MHP7 and MHP9 [38]. In brief, HUVECs were seeded in 96-well plates and cultured for 24 h. Subsequently, HUVECs were separately treated with MHP6, MHP7 and MHP9 (100, 200, 300 or 400 μM) at 37 °C. After 24 h, MTT was added into the cell culture to reach a final concentration of 2 mg/mL. After 4 h, DMSO was added into each well and the absorbance at 490 nm was determined. Cell viability was calculated according to the following formula:Cell viability (%) = (Asample/Acontrol) × 100(2)"}, "[5]": {"molecular_target": "T1, ACE", "settings": "cited from earlier work", "method": "To illustrate the ACEi mechanism of MHP6, MHP7 and MHP9, a molecular docking assay was conducted (Figure 7), and the affinities of MHP6, MHP7 and MHP9 with ACE were −7.3, −10.9 and −9.4 kcal/mol, respectively, which were similar to those of ACEi peptides from miiuy croakers (IKSW: −9.3 kcal/mol), M. edulis (LSFR: −8.5 kcal/mol), rice bran (YSK: −7.9 kcal/mol), tuna milts (YEGDP: −8.8 kcal/mol) and soybean (LVLL: −8.6 kca ..."}, "[6]": {"system": "Nrf2 and heme oxygenase-1 (HO-1) proteins in HUVECs", "settings": "oxidative damage, ref [73]; cited from earlier work", "excerpt": "(§3) In addition, ET-1 is a known vasoconstriction factor, similar to Ang II, that can result in endothelial dysfunction associated with high blood pressure and atherosclerosis."}, "[7]": {"system": "HUVECs", "settings": "cited from earlier work; for NO and ET-1 production in HUVECs: ref [73]; for ET-1 secretion and NO generation in HUVECs: peptide from tuna roes, ref [31]", "excerpt": "as §3"}, "[8]": {"settings": "peptide 300 μM, 24 h, without NE, control 54.87 ± 2.57 pg/mL, mean ± SD, n = 3"}},
  "note": "Where two headings read alike, the source gives them in different places.",
  "data": [
    {"compound": "C[C@H](CS)C(=O)N1CCC[C@H]1C(=O)O", "note": "[Cap, captopril, reference compound]", "values": [
      {"measurement": "ET-1 level in HUVECs", "setting": "[1]; Cap 1.0 μM, control 54.87 ± 2.57 pg/mL, mean ± SD, n = 3", "result": "32.25 ± 1.26", "unit": "pg/mL"},
      {"measurement": "NO level in HUVECs", "setting": "[2]; Cap treatment", "result": "56.18 ± 2.58", "unit": "µM"}
    ]},
    {"compound": "NC[C@H](O)c1ccc(O)c(O)c1", "note": "[NE, norepinephrine, reference compound]", "values": [
      {"measurement": "ET-1 content in HUVECs", "setting": "[1]; NE 0.5 μM, control 54.87 ± 2.57 pg/mL, p < 0.001, mean ± SD, n = 3", "result": "69.58 ± 3.11", "unit": "pg/mL"},
      {"measurement": "NO level in HUVECs", "setting": "[2]; NE treatment, p < 0.001", "result": "21.34 ± 1.24", "unit": "µM"}
    ]},
    {"compound": "H-FDGPY-OH [MHP7, Phe-Asp-Gly-Pro-Tyr]", "values": [
      {"measurement": "ACEi activity", "setting": "[3]", "result": "84.99 ± 2.34", "unit": "%"},
      {"measurement": "ET-1 content in NE-treated HUVECs", "setting": "[1]; p < 0.001, mean ± SD, n = 3", "result": "61.23 ± 1.89", "unit": "pg/mL"},
      {"measurement": "ET-1 content in HUVECs", "setting": "[1]; [8]", "result": "43.87 ± 1.73", "unit": "pg/mL"},
      {"measurement": "ET-1 content in HUVECs, result in words", "setting": "[1]; p < 0.001", "result": "significantly reduce the ET-1 content in HUVECs"},
      {"measurement": "NO content in NE-treated HUVECs", "setting": "[2]; p < 0.001", "result": "26.31 ± 1.22", "unit": "µM"},
      {"measurement": "NO production level in HUVECs", "setting": "[2]", "result": "48.91 ± 2.35", "unit": "µM"},
      {"measurement": "NO content in HUVECs, result in words", "setting": "[2]", "result": "significantly increased"},
      {"measurement": "Cell viability of HUVECs", "setting": "[4]", "result": "90.39 ± 3.19", "unit": "%"},
      {"measurement": "Viability of HUVECs, result in words", "setting": "[4]", "result": "might lead to some adverse harm to the function of HUVECs"}
    ]},
    {"compound": "H-SEGPK-OH [MHP6, Ser-Glu-Gly-Pro-Lys]", "values": [
      {"measurement": "ACEi activity", "setting": "[3]", "result": "86.34 ± 3.25", "unit": "%"},
      {"measurement": "ET-1 content in NE-treated HUVECs", "setting": "[1]; p < 0.001, mean ± SD, n = 3", "result": "57.62 ± 1.95", "unit": "pg/mL"},
      {"measurement": "ET-1 content in HUVECs", "setting": "[1]; [8]", "result": "40.35 ± 1.96", "unit": "pg/mL"},
      {"measurement": "ET-1 content in HUVECs, result in words", "setting": "[1]; p < 0.001", "result": "significantly reduce the ET-1 content in HUVECs"},
      {"measurement": "NO content in NE-treated HUVECs", "setting": "[2]; p < 0.001", "result": "31.24 ± 1.29", "unit": "µM"},
      {"measurement": "NO production level in HUVECs", "setting": "[2]", "result": "51.68 ± 2.38", "unit": "µM"},
      {"measurement": "NO content in HUVECs, result in words", "setting": "[2]", "result": "significantly increased"},
      {"measurement": "Cell viability of HUVECs", "setting": "[4]", "result": "91.27 ± 2.64", "unit": "%"},
      {"measurement": "Viability of HUVECs, result in words", "setting": "[4]", "result": "might lead to some adverse harm to the function of HUVECs"}
    ]},
    {"compound": "H-SPGPW-OH [MHP9, Ser-Pro-Gly-Pro-Trp]", "values": [
      {"measurement": "ACEi activity", "setting": "[3]", "result": "85.39 ± 3.46", "unit": "%"},
      {"measurement": "ET-1 content in NE-treated HUVECs", "setting": "[1]; p < 0.001, mean ± SD, n = 3", "result": "58.44 ± 2.34", "unit": "pg/mL"},
      {"measurement": "ET-1 content in HUVECs", "setting": "[1]; [8]", "result": "42.18 ± 2.09", "unit": "pg/mL"},
      {"measurement": "ET-1 content in HUVECs, result in words", "setting": "[1]; p < 0.001", "result": "significantly reduce the ET-1 content in HUVECs"},
      {"measurement": "NO content in NE-treated HUVECs", "setting": "[2]; p < 0.001", "result": "29.87 ± 1.34", "unit": "µM"},
      {"measurement": "NO production level in HUVECs", "setting": "[2]", "result": "49.83 ± 0.96", "unit": "µM"},
      {"measurement": "NO content in HUVECs, result in words", "setting": "[2]", "result": "significantly increased"},
      {"measurement": "Cell viability of HUVECs", "setting": "[4]", "result": "91.76 ± 3.22", "unit": "%"},
      {"measurement": "Viability of HUVECs, result in words", "setting": "[4]", "result": "might lead to some adverse harm to the function of HUVECs"}
    ]},
    {"compound": "IKSW [ACEi peptide from miiuy croakers]", "values": [
      {"measurement": "Affinity with ACE", "setting": "[5]; peptide from miiuy croakers, ref [31]", "result": -9.3, "unit": "kcal/mol"}
    ]},
    {"compound": "IVTNWDDMEK", "values": [
      {"measurement": "Expression levels of Nrf2 and HO-1 proteins", "setting": "[6]", "result": "positively regulate the expression levels of Nrf2 and heme oxygenase-1 (HO-1) proteins"},
      {"measurement": "NO and ET-1 production in HUVECs", "setting": "[7]", "result": "regulate NO and ET-1 production in a concentration-dependent manner"}
    ]},
    {"compound": "LSFR", "values": [
      {"measurement": "Affinity with ACE", "setting": "[5]; peptide from M. edulis, ref [30]", "result": -8.5, "unit": "kcal/mol"}
    ]},
    {"compound": "LVLL [ACEi peptide from soybean]", "values": [
      {"measurement": "Affinity with ACE", "setting": "[5]; peptide from soybean, ref [72]", "result": -8.6, "unit": "kcal/mol"}
    ]},
    {"compound": "VGPAGPRG", "values": [
      {"measurement": "Expression levels of Nrf2 and HO-1 proteins", "setting": "[6]", "result": "positively regulate the expression levels of Nrf2 and heme oxygenase-1 (HO-1) proteins"},
      {"measurement": "NO and ET-1 production in HUVECs", "setting": "[7]", "result": "regulate NO and ET-1 production in a concentration-dependent manner"}
    ]},
    {"compound": "WGESF [from tuna roes]", "values": [
      {"measurement": "ET-1 secretion and NO generation in HUVECs", "setting": "[7]", "result": "significantly bring down ET-1 secretion and improve the NO generation in HUVECs"}
    ]},
    {"compound": "WSPGF [from tuna roes]", "values": [
      {"measurement": "ET-1 secretion and NO generation in HUVECs", "setting": "[7]", "result": "significantly bring down ET-1 secretion and improve the NO generation in HUVECs"}
    ]},
    {"compound": "YEGDP", "values": [
      {"measurement": "Affinity with ACE", "setting": "[5]; peptide from tuna milts, ref [32]", "result": -8.8, "unit": "kcal/mol"}
    ]}
  ]
}
